# Where “and” joins values, the source holds several entries; their conditions need not be identical. Equal entries are not always repeated. Where two headings read alike, the source gives them in different places.
# Experiments:
# [1] = Method: The in vitro studies described herein measured the rate of pentamidine transport across skin excised from a "nude" mouse. The skin is placed in a vertical two-chambered device. The skin partitions between a donor compartment containing a formulation to be tested and a receptor compartment containing the aqueous medium. The skin is clamped in place with skin epidermis facing the donor compartment. A water jacket maintains a constant temperature (37° C.).
# The following pharmaceutical formulations were prepared by dissolving any dry ingredients (i.e. pentamidine isethionate, terpene, methyl paraben, propyl paraben) in the solvent (i.e. isopropyl alcohol/water or propylene glycol/water). […] Gentle stirring was then continued for the next 15 minutes or until the solution thickened. When polyquaternium-10 is the polymer heating was required to make the formulation gel.
# [2] = Pentamidine pharmacokinetics after IV infusion in Rhesus monkeys (plasma, urine); assay type: in vivo
# Method: Pentamidine was administered to four Rhesus monkeys by an IV infusion of 1 hr duration which was designed to deliver 4 mg drug/kg animal weight. Urine samples were obtained at -24 to 0 hr, 0 to 3 hr, 3 to 7 hr, 7 to 24 hr and 24 to 48 hr. Blood (2 ml) was withdrawn from an arm vein at -24 hr, 0.5 hr, 1 hr, 2 hr, 3 hr, 5 hr, 7 hr, 24 hr and 48 hr after the end of the IV infusion. Plasma was obtained from the heparinized blood by centrifugation.
# [3] = rhesus monkey, in vivo
# [4] = Pentamidine pharmacokinetics after transdermal application in Rhesus monkeys (plasma, urine, residual analysis)
compound,measurement,setting,value
CC(C)[C@@H]1CC[C@@H](C)C[C@@H]1O (relative stereo) [neomenthol],penetration enhancement for transdermal delivery of pentamidine,[1]; result in words,effective penetration enhancers
CC12CCC(CC1=O)C2(C)C (stereo not drawn) [camphor],penetration enhancement for transdermal delivery of pentamidine,[1]; result in words,effective penetration enhancers
Cc1ccc(C(C)C)cc1O [carvacrol],penetration enhancement for transdermal delivery of pentamidine,[1]; result in words,effective penetration enhancers
C=C(C)C1CC=C(C)[C@@H](O)C1 (stereo partly drawn) [carveol],penetration enhancement for transdermal delivery of pentamidine,[1],effective penetration enhancers
C=C(C)C1CC=C(C)C(=O)C1 (stereo not drawn) [carvone],penetration enhancement for transdermal delivery of pentamidine,[1]; result in words,effective penetration enhancers
CC(C)=CCCC(C)=CC=O [citral],penetration enhancement for transdermal delivery of pentamidine,[1]; result in words,effective penetration enhancers
C=C(C)C1CCC(C)C(O)C1 (stereo not drawn) [dihydrocarveol],penetration enhancement for transdermal delivery of pentamidine,[1]; result in words,effective penetration enhancers
C=C(C)C1CCC(C)C(=O)C1 (stereo not drawn) [dihydrocarvone],penetration enhancement for transdermal delivery of pentamidine,[1]; result in words,effective penetration enhancers
C=C(C)[C@@H]1CC[C@@H](C)C[C@H]1O [isopulegol],penetration enhancement for transdermal delivery of pentamidine,[1]; result in words,effective penetration enhancers
C=CC(C)(O)CCC=C(C)C (stereo not drawn) [linalol],penetration enhancement for transdermal delivery of pentamidine,[1]; result in words,effective penetration enhancers
CC1CCC(C(C)C)C(O)C1 (stereo not drawn) [menthol],penetration enhancement for transdermal delivery of pentamidine,[1]; result in words,effective penetration enhancers
CC(C)[C@@H]1CC[C@@H](C)CC1=O [menthone],penetration enhancement for transdermal delivery of pentamidine,[1]; result in words,effective penetration enhancers
"N=C(N)c1ccc(OCCCCCOc2ccc(C(=N)N)cc2)cc1 [pentamidine, 4,4'-[1,5-Pentanediylbis(oxy)]bisbenzenecarboximidamide]","Total Clearance, IV dose","[2]; DOSEiv/AUCiv, individual monkeys 1, 2, 3, 4, 4 mg/kg",39.27 lt/h and 24.18 lt/h and 20.38 lt/h and 19.38 lt/h
same,"AUC, IV (0-5 h)","[2]; plasma, IV 4 mg/kg, 1 hr infusion, individual monkeys 1, 2, 3, 4, 4 mg/kg, 300 min",428 (ng/ml) h and 719 (ng/ml) h and 883 (ng/ml) h and 784 (ng/ml) h
same,AUC at 5 h,"[2]; rhesus monkey, plasma, iv, 4 mg/kg, AUC, IV (0-5 h), Average (SD), IV 4 mg/kg, 1 hr infusion, average of 4 monkeys",704 ng·h/mL
same,clearance,"[2]; rhesus monkey, plasma, iv, 4 mg/kg, DOSEiv/AUCiv, average of 4 monkeys, read-out: Total Clearance, IV dose, Average (SD) (converted)",430 mL/min
same,dose excreted at 48 h,"[2]; rhesus monkey, urine, iv, 4 mg/kg, IV, average of 4 monkeys, read-out: % Dose excreted in urine, IV dose 0-48 h, Average (SD)",2.28%
same,CL renal at 48 h,"[2]; rhesus monkey, urine, iv, 4 mg/kg, amount in urine (0-48 h)/AUCiv, average of 4 monkeys, read-out: Renal Clearance, IV dose, Average (SD) (converted)",10 mL/min
same,"Urine Cum. Pentam., IV 0-48 h, Average (SD)","[2]; urine, IV, average of 4 monkeys",0.39 (0.27) mg
same,"Urine Cum. Pentam., IV 0-48 h","[2]; urine, IV, individual monkeys 1, 2, 3, 4",0.360 mg and 0.691 mg and 0.473 mg and 0.054 mg
same,blood levels of pentamidine by transdermal delivery,[3],effective blood levels of pentamidine can be achieved by transdermal delivery
same,% Absolute Bioavail.,"[4]; (AUCtrans/AUCiv) × (DOSEiv/DOSEtrans) × 100, individual monkeys 1, 2, 3, 4",99.2% and 29.03% and 18.99% and 27.19%
same,residual pentamidine recovered from transdermal chambers,[4]; chambers removed 24 hr after application,Only small amounts of the original dose of pentamidine were recovered
same,"% Dose absorbed excreted in urine, transdermal dose 0-48, Average (SD)","[4]; dose absorbed from urine % bioavailability, average of 4 monkeys",2.26 (1.45) %
same,"% Dose absorbed excreted in urine, transdermal dose 0-48","[4]; dose absorbed from urine % bioavailability, individual monkeys 1, 2, 3, 4",2.15% and 3.88% and 2.62% and 0.38%
same,% Bioavailability,"[4]; dose-corrected ratio of total pentamidine excreted in urine, transdermal vs IV, individual monkeys 1, 2, 3, 4",50.34% and 19.32% and 73.28% and 85.62%
same,"AUC, Trans (0-72 hr)","[4]; plasma, transdermal 292 mg, individual monkeys 1, 2, 3, 4, 4320 min",7407 (ng/ml) h and 3426 (ng/ml) h and 2721 (ng/ml) h and 4384 (ng/ml) h
same,bioavailability,"[4]; rhesus monkey, plasma, topical or ocular, 292 mg, % Absolute Bioavail., Average (SD), (AUCtrans/AUCiv) × (DOSEiv/DOSEtrans) × 100, average of 4 monkeys",43.6%
same,AUC at 72 h,"[4]; rhesus monkey, plasma, topical or ocular, 292 mg, AUC, Trans (0-72 hr), Average (SD), transdermal 292 mg, average of 4 monkeys",4480 ng·h/mL
same,Fa at 24 h,"[4]; rhesus monkey, residual in pads, topical or ocular, 292 mg, % Absorbed (from residual analysis in the pads), Average (SD), transdermal, average of 4 monkeys",57.7%
same,bioavailability,"[4]; rhesus monkey, urine, topical or ocular, 292 mg, % Bioavailability, Average (SD), dose-corrected ratio of total pentamidine excreted in urine, transdermal vs IV, average of 4 monkeys",57.1%
same,% Absorbed (from residual analysis in the pads),"[4]; transdermal, individual monkeys 1, 2, 3, 4, 1440 min",70.9% and 54.4% and 58.8% and 46.5%
same,"Urine Cum. Pentam., Trans. 0-48 h, Average (SD)","[4]; urine, transdermal, average of 4 monkeys",2.98 (1.97) mg
same,"Urine Cum. Pentam., Trans. 0-48 h","[4]; urine, transdermal, individual monkeys 1, 2, 3, 4",3.16 mg and 2.18 mg and 5.61 mg and 0.95 mg
CC(C)=C1CC[C@@H](C)CC1=O [pulegone],penetration enhancement for transdermal delivery of pentamidine,[1]; result in words,effective penetration enhancers
C/C=C/c1ccc(OC)cc1 [t-anethole],penetration enhancement for transdermal delivery of pentamidine,[1]; result in words,effective penetration enhancers
CC1=CCC(O)(C(C)C)CC1 (stereo not drawn) [terpene-4-ol],penetration enhancement for transdermal delivery of pentamidine,[1],effective penetration enhancers
Cc1ccc(C(C)C)c(O)c1 [thymol],penetration enhancement for transdermal delivery of pentamidine,[1]; result in words,effective penetration enhancers
CC1=CCC(C(C)(C)O)CC1 (stereo not drawn) [α-terpineol],penetration enhancement for transdermal delivery of pentamidine,[1]; result in words,effective penetration enhancers

# From US5230897A, “Transdermal pentamidine” (priority 1991, dated 1993)
